ChEMBL document CHEMBL1126444, “Synthesis and structure-activity relationships of heterocyclic analogues of the functional M1 selective muscarinic agonist hexyloxy-TZTP” (Bioorg Med Chem Lett, 1992)

Legend:
[1] = molecular target: Muscarinic acetylcholine receptor; experiment: Displacement of [3H]-OXO-M (oxotremorine-M) from the central muscarinic receptor sites of the rat brain membranes; assay type: cell membranes, Membrane
[2] = species: Oryctolagus cuniculus; experiment: Percent maximum inhibition of the twitch response in the electrically stimulated rabbit vas deferens was determined.; assay type: functional
[3] = molecular target: T1, Muscarinic acetylcholine receptor M1 (Rattus norvegicus, UniProt P08482); experiment: Displacement of [3H]-Pz (pirenzepine) from the muscarinic receptor M1 of the rat hippocampus; assay type: tissue-based
T1 sequence (P08482 whole entry): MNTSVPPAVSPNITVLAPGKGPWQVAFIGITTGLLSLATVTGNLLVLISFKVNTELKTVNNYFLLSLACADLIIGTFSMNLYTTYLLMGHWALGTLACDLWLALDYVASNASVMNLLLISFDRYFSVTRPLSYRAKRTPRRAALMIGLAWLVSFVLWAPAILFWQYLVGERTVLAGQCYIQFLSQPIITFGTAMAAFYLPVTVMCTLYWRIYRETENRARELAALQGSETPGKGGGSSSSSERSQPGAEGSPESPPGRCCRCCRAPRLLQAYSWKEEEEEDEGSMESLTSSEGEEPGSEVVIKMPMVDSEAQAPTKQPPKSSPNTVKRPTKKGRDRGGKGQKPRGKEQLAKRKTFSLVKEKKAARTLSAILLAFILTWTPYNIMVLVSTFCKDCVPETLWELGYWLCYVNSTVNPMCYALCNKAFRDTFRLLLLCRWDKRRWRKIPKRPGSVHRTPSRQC

[4] = species: Oryctolagus cuniculus; experiment: Compound was evaluated for the inhibition of the twitch response in the electrically stimulated rabbit vas deferens; assay type: functional

Row | SMILES | IC50 [1] [nM] | Inhibition [2] [%] | IC50 [3] [nM] | IC50 [4] [nM]
1 | CCCCOc1nsnc1C1=CCCN(C)C1 | 1.4 | – | – | –
2 | CCCCCCOc1nscc1C1=CCCN(C)C1 | > 900 | 43 | 715 | –
3 | CCCCOc1noc(C)c1C1=CCCN(C)C1 | 759 | – | – | –
4 | CCCCCCOc1cscc1C1=CCCN(C)C1 | > 900 | 93 | 663 | 39000
5 | CCCCOc1nscc1C1=CCCN(C)C1 | 544 | 18 | 565 | –
6 | CCCCOc1cscc1C1=CCCN(C)C1 | 477 | 18 | 369 | –
7 | C[N+](C)(C)CC#CCOC(=O)Nc1cccc(Cl)c1.[Cl-] | 355 | 91 | – | –
8 | CCCCCCOc1nonc1C1=CCCN(C)C1 | 70 | 47 | – | –
9 | CCCCOc1nonc1C1=CCCN(C)C1 | 24 | 12 | – | –
10 | CCCCCCOc1nsnc1C1=CCCN(C)C1 [XANOMELINE] | – | 88 | – | –
